Values joined by “and” are separate entries in the source; they are usually repeats but may differ in a detail not shown here. Equal values may be shown once.
Tested on: sEH
Assay: oxylipin analysis, epoxide/diol ratios (target engagement)
Assay type: in vivo, pig
Set-up: 14,15-DiHETE: unit not given beside the values; 12,13-DiHOME / 9,10-DiHODE / 11,12-DiHETrE / 14,15-DiHETrE / 10,11-DiHDPE / 19,20-DiHDPE / 13-HODE / 5-HETE / 11-HETE / 12-HETE / 5-HEPE / 9(10)-EpOME / 12(13)-EpOME / EKODE / 11(12)-EpETE: unit not given here
Description: All animals were monitored with pulse oximetry, heart rate, ECG, systemic arterial blood pressure (ABP), pulmonary arterial pressure (PAP), central venous pressure (CVP) temperature, tidal volumes, respiratory rate and end tidal carbon dioxide. At baseline, and at 3 h, 6 h and at the end of the experiment, pulmonary capillary wedge pressure (PCWP) was measured together with arterial and venous blood gas analyses, as well as cardiac output calculations. Routine chemistry, including creatinine, bilirubin, glucose, electrolytes were collected at baseline and at the end of the experiment (Vetscan VS2®, Abaxis, Griesheim, Germany). Blood samples for measurement of AEPU plasma concentrations, as well as oxylipins (i.e., EpETrEs and their DiHETrE corresponding diols as well as related compounds with other polyunsaturated fatty acid precursors), were collected at baseline, 6 h and at the end of the experiment.
This meant nine subjects in each group to achieve 90% power of detecting a difference of this size given α = 0.05. Anticipating that not all experiments would reach completion, we used a sample size of 22. The results were analyzed using SPSS Statistics, version 24 (IBM Corp., Armonk, N.Y., United States). Normality was examined with the Shapiro-Wilk test, together with examination of histograms of data. Continuous variables were compared using Student’s t-test or Mann Whitney U test, as appropriate. Categorical variables were compared using Fischer’s exact test. Statistical significance was set at α < 0.05. Oxylipins with at least 80% of observations above limit of detection at both timepoints were included in pairwise comparisons of ratios and fold-change evaluations where observations below limit of detection (LOD) were substituted with 0.5 x LOD.

[1] = animal 22, time 6, sample Schwein38

CCOCCOCCOCCCCCNC(=O)NC12CC3CC(CC(C3)C1)C2 [sEH-i]
8(9)-EpETrE [1]: <LOD
8,9-DiHETE [1]: <LOD
8,9-DiHETrE [1]: 0.0757
8-HETE [1]: 0.0546
9(10)-EpODE [1]: 0.22
9(10)-EpOME [1]: 0.65
9,10,13-TriHOME [1]: 4.88
9,10-DiHODE [1]: 0.22
9,10-DiHOME [1]: 1.64
9,12,13-TriHOME [1]: <LOD
9-HETE [1]: <LOD
9-HODE [1]: 3.67
9-HOTrE [1]: 0.7165
9-oxo-ODE [1]: <LOD
10(11)-EpDPE [1]: <LOD
10,11-DiHDPE [1]: 0.03
11(12)-EpETE [1]: 0.07931
11(12)-EpETrE [1]: 0.0369
11,12-DiHETE [1]: 0.0372
11,12-DiHETrE [1]: 0.80
11-HETE [1]: 0.10
12(13)-EpODE [1]: 0.32
12(13)-EpOME [1]: 1.76
12,13-DiHODE [1]: 0.31
12,13-DiHOME [1]: 3.15
12-HEPE [1]: 0.0345
12-HETE [1]: 0.2294
12-oxo-ETE [1]: 2.84
13(14)-EpDPE [1]: <LOD
13,14-DiHDPE [1]: 0.13
13-HODE [1]: 19.79
13-HOTrE [1]: 1.01
13-oxo-ODE [1]: <LOD
14(15)-EpETE [1]: <LOD
14(15)-EpETrE [1]: 0.09
14,15-DiHETrE [1]: 1.47
15(16)-EpODE [1]: 4.31
15,16-DiHODE [1]: 14.18
15-HEPE [1]: <LOD
15-HETE [1]: 0.27
15-HETrE [1]: 0.12
15-oxo-ETE [1]: 0.03
16(17)-EpDPE [1]: <LOD
16,17-DiHDPE [1]: 0.28
17(18)-EpETE [1]: <LOD
17,18-DiHETE [1]: 1.29
17-HDoHE [1]: <LOD
19(20)-EpDPE [1]: <LOD
19,20-DiHDPE [1]: 1.67
20-HETE [1]: 0.10
EKODE [1]: 0.30
LTB4 [1]: <LOD
PGD2 [1]: <LOD
PGE2 [1]: <LOD
PGF2a [1]: 0.18
Resolvin D1 [1]: <LOD
Resolvin D2 [1]: <LOD
TXB2 [1]: 0.45
14,15-DiHETE (animal 22, time 6, sample Schwein38, high blanks): 0.2142
5(6)-EpETrE (time 0, individual pigs): <LOD
5,6-DiHETrE (time 0, individual pigs): <LOD
5-HEPE (time 0, individual pigs): 0.12 and 0.10 and 0.0352 and 0.0647 and 0.04
5-HETE (time 0, individual pigs): 0.3505 and 0.4442 and 0.2569 and 0.292 and 0.2018
5-oxo-ETE (time 0, individual pigs): <LOD and 0.13 and 0.12
7(8)-EpDPE (time 0, individual pigs): <LOD
7,8-DiHDPE (time 0, individual pigs): <LOD
8(9)-EpETE (time 0, individual pigs): <LOD
8(9)-EpETrE (time 0, individual pigs): <LOD
8,9-DiHETE (time 0, individual pigs): <LOD
8,9-DiHETrE (time 0, individual pigs): 0.05 and 0.0422 and <LOD and 0.06
8-HETE (time 0, individual pigs): 0.06 and 0.08 and 0.053 and 0.0429
9(10)-EpODE (time 0, individual pigs): 0.38 and 0.25 and <LOD
9(10)-EpOME (time 0, individual pigs): 0.98 and 0.51 and 0.65 and 0.99 and 0.62
9,10-DiHODE (time 0, individual pigs): 0.22 and 0.21 and 0.10 and 0.16 and 0.12
9,10-DiHOME (time 0, individual pigs): 1.61 and 1.57 and 0.78 and 1.46 and 0.91
9-HETE (time 0, individual pigs): <LOD
9-HODE (time 0, individual pigs): 8.25 and 8.10 and 3.23 and 6.40 and 4.24
9-HOTrE (time 0, individual pigs): 1.27 and 1.28 and 0.79 and 0.81 and 0.6856
9-oxo-ODE (time 0, individual pigs): <LOD
10(11)-EpDPE (time 0, individual pigs): <LOD
10,11-DiHDPE (time 0, individual pigs): <LOD
11(12)-EpETE (time 0, individual pigs): 0.1253 and 0.08781 and 0.1311 and 0.1265 and 0.1028
11(12)-EpETrE (time 0, individual pigs): <LOD and 0.02 and 0.0347 and 0.03
11,12-DiHETE (time 0, individual pigs): <LOD and 0.0219
11,12-DiHETrE (time 0, individual pigs): 0.32 and 0.22 and 0.18 and 0.46 and 0.23
11-HETE (time 0, individual pigs): 0.13 and 0.12 and 0.05 and 0.0453
12(13)-EpODE (time 0, individual pigs): 0.71 and 0.48 and <LOD and 0.61 and 0.44
12(13)-EpOME (time 0, individual pigs): 3.24 and 1.63 and 2.31 and 2.28 and 1.75
12,13-DiHODE (time 0, individual pigs): 0.45 and 0.48 and 0.25 and 0.29
12,13-DiHOME (time 0, individual pigs): 6.90 and 6.98 and 3.85 and 4.66 and 3.09
12-HEPE (time 0, individual pigs): 0.04 and <LOD and 0.0173
12-HETE (time 0, individual pigs): 0.1828 and 0.38 and 0.09618 and 0.1256 and 0.03983
12-oxo-ETE (time 0, individual pigs): <LOD
13(14)-EpDPE (time 0, individual pigs): <LOD
13,14-DiHDPE (time 0, individual pigs): 0.05 and 0.018 and <LOD and 0.06 and 0.0275
13-HODE (time 0, individual pigs): 29.61 and 29.96 and 13.26 and 18.81 and 12.94
